This note sets out measurements from patent US20240327364A1, “THERAPEUTIC TARGETING OF GPR68 TO INDUCE FERROPTOSIS” (University Of Maryland, Baltimore, priority 2023, published 2024).

Assay [1] addresses T1, PRKCE (Homo sapiens, UniProt Q02156).
T1 construct: purchased DiscoveRx (Fremont, CA)
In words: KinomeScan. The assay is classed as binding. Conditions: read-out: % Control.

Assay [2] deals with T2, FYN (Homo sapiens, UniProt P06241).
T2 construct: purchased DiscoveRx (Fremont, CA)
Description: KinomeScan. Conditions: read-out: % Control. Type of assay: binding.

Assay [3] has as its target T3, NMU2 (Homo sapiens, UniProt Q9GZQ4).
T3 construct: host or cells: Chem-1 cells expressing Gα15
In words: GPCR Profiler. Type of assay: cell-based.

The target in assay [4] is T4, PIK3CA(E545A) (Homo sapiens, UniProt P42336, E545A).
T4 construct: purchased DiscoveRx (Fremont, CA)
In words: KinomeScan. Type of assay: binding. Conditions: read-out: % Control.

The target of assay [5] is T5, MST4 (Homo sapiens, UniProt Q9P289).
T5 construct: purchased DiscoveRx
Description: KinomeScan. The assay is classed as binding. Conditions: read-out: % Control.

Assay [6] has as its target T6, TESK1 (Homo sapiens, UniProt Q15569).
T6 construct: purchased DiscoveRx (Fremont, CA)
Description: KinomeScan. The assay is classed as binding. Conditions: read-out: % Control.

Assay [7] deals with T7, ABL1(Y253F)-phosphorylated (Homo sapiens, UniProt P00519, Y253F).
T7 construct: purchased DiscoveRx
In words: KinomeScan. Conditions: read-out: % Control. Type of assay: binding.

The target in assay [8] is T8, TSSK1B (Homo sapiens, UniProt Q9BXA7).
T8 construct: purchased DiscoveRx (Fremont, CA)
Description: KinomeScan. Type of assay: binding. Conditions: read-out: % Control.

The target of assay [9] is T9, CCR1 (Homo sapiens, UniProt P32246).
T9 construct: host or cells: Chem-1 cells with Gα15
Description: GPCR Profiler. The assay is classed as cell-based.

Assay [10] addresses T10, CAMKK2 (Homo sapiens, UniProt Q96RR4).
T10 construct: purchased DiscoveRx (KinomeScan service)
In words: KinomeScan. Conditions: read-out: % Control. The assay is classed as binding.

The target in assay [11] is GPR68 (Homo sapiens, UniProt Q15743). Description: GPCR Profiler. The assay is classed as cell-based. Further details: host or cells: Chem-1 cells (Chem1-OGR1).
In assay [12] the target is T11, PCTK1 (Homo sapiens, UniProt Q00536).
T11 construct: purchased DiscoveRx
Description: KinomeScan. The assay is classed as binding. Conditions: read-out: % Control.

Assay [13] addresses T12, A3 (Homo sapiens, UniProt P0DMS8).
T12 construct: host or cells: Chem-1 cells with promiscuous Gα15
Description: GPCR Profiler. Type of assay: cell-based.

Assay [14] deals with Lpa1 (Homo sapiens, UniProt Q92633). Description: GPCR Profiler. The assay is classed as cell-based.
Assay [15] has as its target T13, MRCKB (Homo sapiens, UniProt Q9Y5S2).
T13 construct: purchased DiscoveRx
Description: KinomeScan. The assay is classed as binding. Conditions: read-out: % Control.

The target in assay [16] is T14, PAK4 (Homo sapiens, UniProt O96013).
T14 construct: purchased DiscoveRx
Description: KinomeScan. The assay is classed as binding. Conditions: read-out: % Control.

For assay [17], the target named is T15, RIOK2 (Homo sapiens, UniProt Q9BVS4).
T15 construct: purchased DiscoveRx (Fremont, CA)
Description: KinomeScan. The assay is classed as binding. Conditions: read-out: % Control.

The target of assay [18] is T16, MEK1 (Homo sapiens, UniProt Q02750).
T16 construct: purchased DiscoveRx (Fremont, CA)
In words: KinomeScan. The assay is classed as binding. Conditions: read-out: % Control.

Assay [19] concerns the target T17, DLK (Homo sapiens, UniProt Q12852).
T17 construct: purchased DiscoveRx (Fremont, CA), KinomeScan service
Description: KinomeScan. Type of assay: binding. Conditions: read-out: % Control.

The target in assay [20] is T18, INSR (Homo sapiens, UniProt P06213).
T18 construct: purchased DiscoveRx (Fremont, CA)
In words: KinomeScan. The assay is classed as binding. Conditions: read-out: % Control.

The target of assay [21] is T19, ADRB1 (Homo sapiens, UniProt P08588).
T19 construct: host or cells: Chem-1 cells with promiscuous Gα15
In words: GPCR Profiler. The assay is classed as cell-based.

The target of assay [22] is T20, sst5 (Homo sapiens, UniProt P35346).
T20 construct: host or cells: Chem-1 cells with Gα15
In words: GPCR Profiler. The assay is classed as cell-based.

Assay [23] has as its target T21, NK3 (Homo sapiens, UniProt P29371).
T21 construct: host or cells: Chem-1 cells expressing Gα15
Description: GPCR Profiler. Type of assay: cell-based.

For assay [24], the target named is T22, EPHA3 (Homo sapiens, UniProt P29320).
T22 construct: purchased DiscoveRx (Fremont, CA)
In words: KinomeScan. The assay is classed as binding. Conditions: read-out: % Control.

In assay [25] the target is T23, TIE2 (Homo sapiens, UniProt Q02763).
T23 construct: purchased DiscoveRx (Fremont, CA)
Description: KinomeScan. The assay is classed as binding. Conditions: read-out: % Control.

The target of assay [26] is T24, EIF2AK1 (Homo sapiens, UniProt Q9BQI3).
T24 construct: purchased DiscoveRx (Fremont, CA)
In words: KinomeScan. Type of assay: binding. Conditions: read-out: % Control.

Assay [27] deals with T25, CDK3 (Homo sapiens, UniProt Q00526).
T25 construct: purchased DiscoveRx (KinomeScan service)
In words: KinomeScan. Type of assay: binding. Conditions: read-out: % Control.

The target in assay [28] is T26, LCK (Homo sapiens, UniProt P06239).
T26 construct: purchased DiscoveRx
Description: KinomeScan. Conditions: read-out: % Control. The assay is classed as binding.

Assay [29] deals with T27, NDR1 (Homo sapiens, UniProt Q15208).
T27 construct: purchased DiscoveRx
Description: KinomeScan. Conditions: read-out: % Control. Type of assay: binding.

For assay [30], the target named is T28, ADRA1D (Homo sapiens, UniProt P25100).
T28 construct: host or cells: Chem-1 cells with promiscuous Gα15
Description: GPCR Profiler. The assay is classed as cell-based.

Assay [31] has as its target T29, PIK3CA(H1047L) (Homo sapiens, UniProt P42336, H1047L).
T29 construct: purchased DiscoveRx (Fremont, CA)
Description: KinomeScan. Type of assay: binding. Conditions: read-out: % Control.

Assay [32] addresses CSNK1A1 (Homo sapiens, UniProt P48729). Description: KinomeScan. Type of assay: binding. Conditions: read-out: % Control.
The target in assay [33] is T30, DRAK2 (Homo sapiens, UniProt O94768).
T30 construct: purchased DiscoveRx (Fremont, CA), KinomeScan service
Description: KinomeScan. Type of assay: binding. Conditions: read-out: % Control.

The test system of assay [34] is U87. In words: GSH-Glo Glutathione Assay. Conditions: 2 μM OGM2 for 24 hours. The assay is classed as cell-based, human. On the procedure:
GSH-Glo™ Glutathione Assay (Promega™) was performed according to manufacturer protocol. Briefly, U87 cells were plated at 10,000 cells per well in a 96-well plate. The following day cells were treated with DMSO control vehicle or 2 μM OGM2 for 24 hours. Medium was removed from wells and 100 μl GSH-Glo™ Reagent was added to each well and incubated on a plate shaker for 30 minutes. One hundred microliters Luciferin Detection Reagent was added to each well and mixed briefly. After 15 minutes incubation, luminescence was detected on Promega™ GloMax luminometer.

T12 sequence (P0DMS8 whole entry): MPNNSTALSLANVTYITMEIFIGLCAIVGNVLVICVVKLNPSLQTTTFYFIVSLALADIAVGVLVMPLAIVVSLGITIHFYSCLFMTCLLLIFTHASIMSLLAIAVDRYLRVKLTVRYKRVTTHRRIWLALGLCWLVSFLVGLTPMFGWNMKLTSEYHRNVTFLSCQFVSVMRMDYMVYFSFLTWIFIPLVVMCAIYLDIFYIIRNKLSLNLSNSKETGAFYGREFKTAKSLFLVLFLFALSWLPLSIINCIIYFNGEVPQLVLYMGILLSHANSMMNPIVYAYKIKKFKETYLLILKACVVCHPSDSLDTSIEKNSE
T19 sequence (P08588 whole entry, species assumed): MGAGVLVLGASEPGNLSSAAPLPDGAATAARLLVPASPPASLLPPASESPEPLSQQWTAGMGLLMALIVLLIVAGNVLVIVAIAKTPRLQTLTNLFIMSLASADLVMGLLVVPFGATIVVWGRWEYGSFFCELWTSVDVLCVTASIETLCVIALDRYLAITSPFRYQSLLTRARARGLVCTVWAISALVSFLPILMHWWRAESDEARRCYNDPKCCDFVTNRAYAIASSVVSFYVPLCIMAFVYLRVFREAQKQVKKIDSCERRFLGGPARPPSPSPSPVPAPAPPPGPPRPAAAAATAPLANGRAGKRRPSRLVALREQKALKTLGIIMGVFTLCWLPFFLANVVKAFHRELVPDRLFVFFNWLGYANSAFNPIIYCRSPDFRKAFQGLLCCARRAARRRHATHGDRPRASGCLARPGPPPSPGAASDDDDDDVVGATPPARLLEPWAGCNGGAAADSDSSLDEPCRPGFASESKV
T20 sequence (P35346 whole entry, species assumed): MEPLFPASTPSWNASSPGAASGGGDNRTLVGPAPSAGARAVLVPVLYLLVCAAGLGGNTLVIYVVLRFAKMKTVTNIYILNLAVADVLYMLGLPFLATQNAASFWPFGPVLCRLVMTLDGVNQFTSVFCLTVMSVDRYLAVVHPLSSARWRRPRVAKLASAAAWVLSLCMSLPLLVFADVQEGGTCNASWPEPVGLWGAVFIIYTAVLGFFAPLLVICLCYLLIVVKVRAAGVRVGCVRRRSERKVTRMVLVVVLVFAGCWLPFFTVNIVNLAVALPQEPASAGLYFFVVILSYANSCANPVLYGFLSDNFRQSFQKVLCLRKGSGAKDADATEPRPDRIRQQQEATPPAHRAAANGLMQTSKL
T21 sequence (P29371 whole entry): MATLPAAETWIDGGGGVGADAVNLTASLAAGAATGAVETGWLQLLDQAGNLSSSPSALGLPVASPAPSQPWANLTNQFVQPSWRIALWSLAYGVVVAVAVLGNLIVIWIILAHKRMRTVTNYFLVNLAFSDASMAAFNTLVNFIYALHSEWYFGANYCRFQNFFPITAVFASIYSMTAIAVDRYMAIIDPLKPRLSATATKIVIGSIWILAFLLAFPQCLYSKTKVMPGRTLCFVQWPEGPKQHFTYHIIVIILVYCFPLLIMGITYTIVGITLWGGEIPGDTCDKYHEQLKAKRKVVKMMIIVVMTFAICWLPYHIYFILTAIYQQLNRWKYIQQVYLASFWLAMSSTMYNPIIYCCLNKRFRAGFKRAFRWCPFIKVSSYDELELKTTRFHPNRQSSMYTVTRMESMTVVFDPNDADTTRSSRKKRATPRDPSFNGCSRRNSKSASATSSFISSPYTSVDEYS
Chain of GPR68 (Q15743 whole entry): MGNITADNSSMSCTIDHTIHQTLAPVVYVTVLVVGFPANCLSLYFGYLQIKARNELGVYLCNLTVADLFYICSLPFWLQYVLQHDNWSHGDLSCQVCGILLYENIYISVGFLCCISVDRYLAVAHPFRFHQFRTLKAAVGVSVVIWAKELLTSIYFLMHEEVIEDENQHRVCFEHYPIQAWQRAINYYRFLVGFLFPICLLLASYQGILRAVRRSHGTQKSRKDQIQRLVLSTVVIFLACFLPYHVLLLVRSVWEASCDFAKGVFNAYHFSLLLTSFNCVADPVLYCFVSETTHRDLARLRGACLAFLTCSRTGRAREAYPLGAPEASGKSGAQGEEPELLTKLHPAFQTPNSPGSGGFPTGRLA
Chain of Lpa1 (Q92633 whole entry, species assumed): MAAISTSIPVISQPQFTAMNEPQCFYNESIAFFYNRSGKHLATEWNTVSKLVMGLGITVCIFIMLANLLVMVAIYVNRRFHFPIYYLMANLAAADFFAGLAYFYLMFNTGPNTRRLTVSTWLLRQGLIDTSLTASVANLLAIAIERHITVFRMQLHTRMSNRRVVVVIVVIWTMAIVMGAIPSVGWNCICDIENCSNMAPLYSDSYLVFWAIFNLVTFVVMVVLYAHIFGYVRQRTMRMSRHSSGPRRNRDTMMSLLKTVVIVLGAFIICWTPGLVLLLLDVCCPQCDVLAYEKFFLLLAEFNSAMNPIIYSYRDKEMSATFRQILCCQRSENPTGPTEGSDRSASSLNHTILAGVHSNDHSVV
T28 sequence (P25100 whole entry, species assumed): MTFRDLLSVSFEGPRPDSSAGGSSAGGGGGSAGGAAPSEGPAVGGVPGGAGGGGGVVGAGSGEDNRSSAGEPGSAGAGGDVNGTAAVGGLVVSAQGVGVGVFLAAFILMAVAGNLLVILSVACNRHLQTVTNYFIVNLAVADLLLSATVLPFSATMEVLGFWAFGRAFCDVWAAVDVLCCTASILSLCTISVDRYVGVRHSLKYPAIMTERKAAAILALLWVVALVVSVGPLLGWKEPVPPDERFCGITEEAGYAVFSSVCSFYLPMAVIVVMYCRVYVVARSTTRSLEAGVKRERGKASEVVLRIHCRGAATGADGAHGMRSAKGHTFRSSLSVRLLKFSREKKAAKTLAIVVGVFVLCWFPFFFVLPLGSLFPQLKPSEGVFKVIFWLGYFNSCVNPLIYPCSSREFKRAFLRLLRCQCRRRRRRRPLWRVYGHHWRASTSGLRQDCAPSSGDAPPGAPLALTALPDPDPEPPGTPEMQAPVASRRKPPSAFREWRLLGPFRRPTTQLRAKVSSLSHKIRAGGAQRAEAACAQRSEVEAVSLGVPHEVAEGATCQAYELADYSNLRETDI
T9 sequence (P32246 whole entry, species assumed): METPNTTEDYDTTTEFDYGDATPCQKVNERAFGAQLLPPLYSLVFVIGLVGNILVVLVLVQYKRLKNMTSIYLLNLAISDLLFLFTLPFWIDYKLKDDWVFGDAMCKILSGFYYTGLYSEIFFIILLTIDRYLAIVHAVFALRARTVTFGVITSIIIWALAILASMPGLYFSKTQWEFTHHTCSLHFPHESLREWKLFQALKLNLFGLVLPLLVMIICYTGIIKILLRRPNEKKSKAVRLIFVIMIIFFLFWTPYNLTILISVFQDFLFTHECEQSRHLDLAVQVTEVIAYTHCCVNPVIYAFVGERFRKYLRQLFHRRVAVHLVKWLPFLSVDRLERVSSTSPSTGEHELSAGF
T3 sequence (Q9GZQ4 whole entry, species assumed): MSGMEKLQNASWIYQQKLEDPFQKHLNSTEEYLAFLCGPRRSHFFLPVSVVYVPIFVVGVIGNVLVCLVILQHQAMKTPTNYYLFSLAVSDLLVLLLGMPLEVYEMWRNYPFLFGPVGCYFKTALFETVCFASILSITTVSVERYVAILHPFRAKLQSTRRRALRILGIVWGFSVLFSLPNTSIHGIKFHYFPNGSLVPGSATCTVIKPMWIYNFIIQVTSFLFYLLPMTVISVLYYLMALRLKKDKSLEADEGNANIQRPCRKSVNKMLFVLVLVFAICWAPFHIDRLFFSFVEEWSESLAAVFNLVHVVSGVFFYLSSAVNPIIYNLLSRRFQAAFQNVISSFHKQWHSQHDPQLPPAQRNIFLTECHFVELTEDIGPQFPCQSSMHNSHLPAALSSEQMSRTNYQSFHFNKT
T4 sequence (P42336 whole entry E545A): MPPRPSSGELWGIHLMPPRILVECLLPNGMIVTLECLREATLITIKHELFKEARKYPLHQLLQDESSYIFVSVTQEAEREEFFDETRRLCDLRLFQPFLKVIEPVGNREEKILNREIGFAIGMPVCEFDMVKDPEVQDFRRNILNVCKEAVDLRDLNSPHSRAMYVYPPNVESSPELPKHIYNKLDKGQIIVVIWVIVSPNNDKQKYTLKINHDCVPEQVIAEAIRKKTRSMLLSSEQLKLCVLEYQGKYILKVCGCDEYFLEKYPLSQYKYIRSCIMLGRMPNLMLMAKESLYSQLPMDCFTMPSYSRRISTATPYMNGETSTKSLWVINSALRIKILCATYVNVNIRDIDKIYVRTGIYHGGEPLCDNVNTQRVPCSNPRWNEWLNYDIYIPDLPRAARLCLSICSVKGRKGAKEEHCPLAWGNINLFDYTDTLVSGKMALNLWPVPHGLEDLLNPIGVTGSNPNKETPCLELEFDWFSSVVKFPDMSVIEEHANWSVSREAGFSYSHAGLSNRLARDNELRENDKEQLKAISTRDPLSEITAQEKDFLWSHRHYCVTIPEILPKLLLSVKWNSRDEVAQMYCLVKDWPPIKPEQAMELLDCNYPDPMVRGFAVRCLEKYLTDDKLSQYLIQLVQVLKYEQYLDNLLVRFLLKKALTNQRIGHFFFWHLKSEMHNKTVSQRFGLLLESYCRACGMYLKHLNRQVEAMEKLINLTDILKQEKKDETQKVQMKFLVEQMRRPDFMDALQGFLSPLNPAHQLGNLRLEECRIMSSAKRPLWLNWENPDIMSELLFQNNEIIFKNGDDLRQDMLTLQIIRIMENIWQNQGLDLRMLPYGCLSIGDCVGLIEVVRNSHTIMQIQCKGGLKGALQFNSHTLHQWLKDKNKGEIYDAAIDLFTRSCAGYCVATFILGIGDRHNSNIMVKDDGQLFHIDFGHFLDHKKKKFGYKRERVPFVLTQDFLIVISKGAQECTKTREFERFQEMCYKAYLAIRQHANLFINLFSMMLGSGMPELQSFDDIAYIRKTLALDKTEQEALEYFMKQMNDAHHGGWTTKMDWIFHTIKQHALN
T29 sequence (P42336 whole entry H1047L): as the sequence (P42336 whole entry E545A) above, with A545E, H1047L counted along it

For `CCc1ccc2c(c1)C1(NN=C(c3cccc4ccccc34)S1)C(=O)N2` (stereo not shown) [OGM1, 5-ethyl-5′-naphthalen-1-ylspiro[1H-indole-3,2′-3H-1,3,4-thiadiazole]-2-one], the remaining binding at 10 µM in assay [1] worked out at 68%; in assay [2], 100%; in assay [4], 81%; in assay [5], 81%; in [6], 100%; in [7], 80%. The remaining binding at 10 µM in assay [8] amounted to 79%; in assay [10], 89%; in [12], 77%; in assay [15], 100%; in [16] it was 66%; in assay [17] it was 100%. For the same compound, the remaining binding at 10 µM was 84% in [18]; 40% in assay [19]; 80% in assay [20]; 78% in assay [24]; 100% in assay [25]; 100% in assay [26]. For the same compound, the remaining binding at 10 µM was 81% in assay [27]; 100% in [28]; 98% in [29]; 100% in [31]; 75% in [32]; 100% in [33]. Moreover, the Antagonism is on record as −4.2 in assay [3] (10 uM); −0.6 in assay [9] (10 uM); 70.8 in [11] (10 uM); 3.2 in assay [13] (10 uM); 89.5 in assay [14] (10 uM); −9.6 in [21] (10 uM). Also, the Antagonism in assay [22] (10 uM) was −4; in assay [23] (10 uM), −3; in [30] (10 uM) it was −5.7. The Agonism in assay [3] (12.5 uM) is 0; in assay [9] (12.5 uM), −0.3; in assay [11] (12.5 uM), −7.6; in [13] (12.5 uM), −0.4; in assay [14] (12.5 uM) it was 0.5; in assay [21] (12.5 uM) it was −1.3. Also, the Agonism is reported as −0.3 in assay [22] (12.5 uM), 0.5 in assay [23] (12.5 uM) and 0.8 in assay [30] (12.5 uM).
For `CCc1ccc2c(c1)C1(NN=C(c3ccccc3)S1)C(=O)N2` (stereo not shown) [OGM2], the glutathione levels entry in assay [34] is recorded as “dramatically reduced glutathione levels”.
